Source: patent US10988465B2, “CXCR4 inhibitors and uses thereof” (X4 Pharmaceuticals, Inc., priority 2016, dated 2021)
pIC50: −log10 of the molar value.

Key:
[1] = target: T1, CXCR-4 transfected U87 cell line (U87.CXCR4) (Homo sapiens, UniProt P61073); experiment: Intracellular CXCL-12-induced calcium mobilization assay (FLIPR); assay type: cell-based; conditions: U87.CXCR4 cells; CXCL-12 25-50 ng/mL; compound added 15 min before; read-out: IC50 CXCL-12 Ca^2+ flux U87.CXCR4+
T1 construct: expressed in transfected cells; host or cells: U87 (U87.CXCR4)
How it was run: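 CXCL-12 (25-50 ng/mL) was the stimulus, and the intracellular calcium rise was tracked kinetically by FLIPR at 37 °C. Cells were U87.CXCR4 transfectants pre-loaded 45 min at 37 °C with 4 μM (final) Fluo-2 AM in HEPES-buffered HBSS with 0.2% BSA, pH 7.4.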

[2] = target: T2, Jurkat cells expressing CXCR4 (Homo sapiens, UniProt P61073); experiment: Chemokine (CXCL12-AF647) binding inhibition assay; conditions: CXCL12-AF647 25 ng/mL, read-out: IC50 CXCL-12 binding Jurkat
T2 construct: endogenous in cells; host or cells: Jurkat
How it was run: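 Cells in HBSS, 20 mM HEPES, 0.2% BSA, pH 7.4, preincubated 15 min at room temperature with compound, then 25 ng/mL CXCL12-AF647 for 30 min. After washing and paraformaldehyde fixation, bound ligand read by flow cytometry; percent inhibition calculated from MFI relative to unlabeled and ligand-only controls.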

[3] = Mouse brain uptake assay (MBUA), 3 mg/kg IV, 0-1 h, 3 time points; assay type: in vivo, male CD1 mice; conditions: for Kp / clearance / half-life / AUC(0-t) / Kp uu: male; for Kp: CD1, mouse, brain/plasma, iv, 3 mg/kg; for clearance / half-life: CD1, plasma, 3 time points; for clearance / half-life / AUC(0-t) / Kp uu / fraction unbound: mouse; for clearance / half-life / AUC(0-t) / Kp uu: 3 mg/kg IV, 0-1 h; for half-life: read-out: t½ (converted); for AUC(0-t) / Kp uu: CD1; for Kp uu: unbound brain/unbound plasma, read-out: Kp, uu
Experimental: (§1) Example 38: Pharmacokinetics and Brain Penetration Experiment to Determine Brain and Plasma Concentrations of Compounds after IV Administration to Male CD1 Mice
(§2) The study design (9 animals) consisted of administrating the drug (IV: 3 mg/kg (5 mL/kg) via tail vein injection) and collecting samples at terminal bleeding for plasma and brain at 0.083, 0.5 and 1 h. The IV dosing solution was prepared in 50 mM citrate buffer (pH 4.0) at 0.6 mg/mL. The blood collection was performed as follows: the animal was restrained manually and approximately 150 μL blood/time point was collected into a dipotassium EDTA tube via retro orbital puncture under anesthesia with isoflurane. The blood sample was put on ice and centrifuged to obtain a plasma sample (2000 g, 5 min under 4° C.) within 15 minutes. The brain collection was performed as follows: a mid-line incision was made in the animal's scalp and the skin was retracted. Using small bone cutters and rongeurs, the skull overlying the brain was removed. The brain was removed using a spatula and the brain rinsed with cold saline. The brain was placed in screw-top tubes, and the tubes were stored at −70° C. until analysis.
(§3) An aliquot of 30 μL sample was added to 150 μL MeCN containing 50 ng/mL IS (Dexamethasone). The mixture was vortexed for 5 min and centrifuged at 14,000 rpm for 5 min. An aliquot of 5 μL supernatant was injected for LC-MS/MS analysis.
(§4) An aliquot of 30 μL brain homogenate (brain:PBS=1:3, w/v) sample was added to 150 μL IS in MeCN (Dexamethasone, 50 ng/mL). The mixture was vortexed for 5 min and centrifuged at 14,000 rpm for 5 min. An aliquot of 5 μL supernatant was injected for LC-MS/MS analysis.
(§5) The sample analysis was performed on LCMS/MS-003 (API4000, triple quadruple) under the following conditions: positive ion, ESI, MRM detection using dexamethasone as internal standard. HPLC conditions: mobile phase A: H2O (0.025% formic acid (FA) with 1 mM NH4OAc); mobile phase B: MeOH (0.025% FA with 1 mM NH4OAc) on Waters X-Bridge C18 (2.1×50 mm, 2.5 μm) column at 60° C.

in vitro = conditions: human, Caco-2, pH 7.4
How it was run: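 Bidirectional permeability across Caco-2 monolayers in HBSS (pH 7.4) at a test concentration of 10 μM, incubated 0 and 90 min at 37° C (n=2). Monolayer integrity was assessed by TEER and Lucifer yellow. Papp was derived from LC-MS/MS-measured concentrations.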

[4] = Mouse brain uptake assay (MBUA), 3 mg/kg IV, 0-24 h, 4 time points; assay type: in vivo, male CD1 mice; conditions: for Kp / clearance / half-life / AUC(0-t) / Kp uu: male; for Kp: CD1, mouse, brain/plasma, iv, 3 mg/kg; for clearance / half-life: CD1, plasma, 4 time points; for clearance / half-life / AUC(0-t) / Kp uu / fraction unbound: mouse; for clearance / half-life / AUC(0-t) / Kp uu: 3 mg/kg IV, 0-24 h; for half-life: read-out: t½ (converted); for AUC(0-t) / Kp uu: CD1; for Kp uu: unbound brain/unbound plasma
Experimental: as §1, §2, §3, §4, §5
A similar experiment was performed with 4 time points taken from 0-24 h.

[5] = fraction unbound to brain proteins, read-out: Fu (b) %
[6] = fraction unbound to plasma proteins, read-out: Fu (p) %

T2 sequence (P61073 whole entry): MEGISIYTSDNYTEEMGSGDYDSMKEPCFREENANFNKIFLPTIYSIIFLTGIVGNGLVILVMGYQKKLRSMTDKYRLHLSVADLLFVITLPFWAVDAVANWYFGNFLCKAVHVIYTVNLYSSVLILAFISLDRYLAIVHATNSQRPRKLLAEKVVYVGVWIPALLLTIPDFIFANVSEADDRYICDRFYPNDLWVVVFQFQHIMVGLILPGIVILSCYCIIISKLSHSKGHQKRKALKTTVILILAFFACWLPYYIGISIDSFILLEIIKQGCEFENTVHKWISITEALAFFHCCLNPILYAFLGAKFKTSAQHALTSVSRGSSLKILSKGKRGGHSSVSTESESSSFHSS
T1 sequence (P61073 whole entry): as above

pIC50 [1]	pIC50 [2]	Papp A→B at 90 min, 10 μM (in vitro) [×10⁻⁶ cm/s]	Papp B→A at 90 min, 10 μM (in vitro) [×10⁻⁶ cm/s]	efflux ratio at 90 min, 10 μM (in vitro)	Kp [4]	clearance [4] [mL/min/kg]	half-life [4] [min]	AUC(0-t) ([4]; brain, read-out: AUClast (b)) [ng·h/mL]	AUC(0-t) ([4]; plasma, read-out: AUClast (P)) [ng·h/mL]	Kp uu [4]	fraction unbound [4, 5]	fraction unbound [4, 6]	Compound	also measured
6.00 to 7.00	7.00 to 11.00	10 to 30	10 to 30	0.1 to 10									CN1CCN(c2cccc3nc([C@H]4CCC[C@@H](c5ncccc5Cl)N4C)[nH]c23)CC1 [I-9, 2-((2R,6S)-6-(3-chloropyridin-2-yl)-1-methylpiperidin-2-yl)-7-(4-methylpiperazin-1-yl)-1H-benzo[d]imidazole]	Kp [3]: 2.51; clearance [3]: 77.2 mL/min/kg; half-life [3]: 16 min; AUC(0-t) ([3]; brain, read-out: AUClast (b)): 1510 ng·h/mL; AUC(0-t) ([3]; plasma, read-out: AUClast (P)): 601 ng·h/mL; Kp uu [3]: 0.73; fraction unbound [3, 5]: 0.016; fraction unbound [3, 6]: 0.055
7.00 to 11.00	7.00 to 11.00	0.1 to 10	10 to 30	0.1 to 10									Cc1cccnc1[C@@H]1CCC[C@H](c2nc3ccccc3n2CC2CCN(C)CC2)N1C [I-15, 2-((2R,6S)-1-methyl-6-(3-methylpyridin-2-yl)piperidin-2-yl)-1-((1-methylpiperidin-4-yl)methyl)-1H-benzo[d]imidazole]	Kp [3]: 0.34; clearance [3]: 282 mL/min/kg; half-life [3]: 17.8 min; AUC(0-t) ([3]; brain, read-out: AUClast (b)): 55.3 ng·h/mL; AUC(0-t) ([3]; plasma, read-out: AUClast (P)): 161 ng·h/mL; Kp uu [3]: 0.02; fraction unbound [3, 5]: 0.004; fraction unbound [3, 6]: 0.076
7.00 to 11.00	7.00 to 11.00	10 to 30	10 to 30	0.1 to 10	44.5	212	18.6	9320	209				Cc1cccnc1[C@@H]1CCC[C@H](c2nc3cccc(N4CCN5CCCC5C4)c3[nH]2)N1C (stereo partly shown) [I-66]	
7.00 to 11.00	7.00 to 11.00	10 to 30	10 to 30	0.1 to 10	15	168	16.9	4080	272	1.98	0.016	0.121	Cc1cc(F)cnc1[C@@H]1CCC[C@H](c2nc3cccc(N4CCN(C)CC4)c3[nH]2)N1C [I-69]	
7.00 to 11.00	7.00 to 11.00	> 30	10 to 30	0.1 to 10	57.2	46.5	11.6	59800	1050				Cc1cccnc1[C@@H]1CCC[C@H](c2nc3cccc(N4CCN(C5CC5)CC4)c3[nH]2)N1C [I-76]	
7.00 to 11.00	7.00 to 11.00	0.1 to 10	0.1 to 10	0.1 to 10	7.96	33.3	286	11700	1470	1.01	0.019	0.149	COc1ccnc([C@@H]2CCC[C@H](c3nc4cccc(N5CCN(C)CC5)c4[nH]3)N2C)c1C [I-81]	
7.00 to 11.00	7.00 to 11.00	10 to 30	10 to 30	0.1 to 10	4.27	172	16.3	1150	269	0.65	0.005	0.033	Cc1c(Cl)ccnc1[C@@H]1CCC[C@H](c2nc3cccc(N4CCN(C)CC4)c3[nH]2)N1C [I-82]	
6.00 to 7.00	7.00 to 11.00				31.2	102	13.7	15300	14800	11.3	0.012	0.033	CN1[C@@H](c2nc3cccc(N4CCN5CCCC5C4)c3[nH]2)CCC[C@H]1c1ncccc1Cl (stereo partly shown) [I-96]	
6.00 to 7.00	7.00 to 11.00	10 to 30	10 to 30	0.1 to 10	7.3	102	16.7	3280	449				CO[C@H]1C[C@H](c2nc3cccc(N4CCN(C)CC4)c3[nH]2)N(C)[C@H](c2ncccc2C)C1 [I-103]	
6.00 to 7.00	7.00 to 11.00	> 30	10 to 30	0.1 to 10	55.8	115	15.1	22800	408				Cc1cccnc1[C@@H]1CCC[C@H](c2nc3cccc(N4CCN(C)C5(CC5)C4)c3[nH]2)N1C [I-108]	
7.00 to 11.00	7.00 to 11.00	0.1 to 10	10 to 30	0.1 to 10	2.5			3940	1580	0.2	0.011	0.135	Cc1cccnc1[C@@H]1CCC[C@H](c2nc3cccc(N4CCN(C(C)C)CC4)c3[nH]2)N1 [I-128]	
≤ 6.00	7.00 to 11.00	10 to 30	10 to 30	0.1 to 10	7.23	56	229	6410	887				CN1CCC(n2ccnc2[C@H]2CCC[C@@H](c3ncccc3Cl)N2C)CC1 [I-170]	

Compound	pIC50 [1]	pIC50 [2]	Papp A→B at 90 min, 10 μM (in vitro) [×10⁻⁶ cm/s]	Papp B→A at 90 min, 10 μM (in vitro) [×10⁻⁶ cm/s]	efflux ratio at 90 min, 10 μM (in vitro)	Kp [4]	clearance [4] [mL/min/kg]	half-life [4] [min]	AUC(0-t) ([4]; brain, read-out: AUClast (b)) [ng·h/mL]	AUC(0-t) ([4]; plasma, read-out: AUClast (P)) [ng·h/mL]	Kp uu [4]	fraction unbound [4, 5]	fraction unbound [4, 6]	also measured
Cc1cccnc1[C@@H]1CCC[C@H](c2nc3cccc(N4CC5CCC(C4)N5C)c3[nH]2)N1C [I-56]	7.00 to 11.00	7.00 to 11.00	10 to 30	10 to 30	0.1 to 10	1.94	32.3	184	3000	1540	0.35	0.013	0.073	
Cc1cccnc1[C@@H]1CCC[C@H](c2nc3cccc(N4C5CCC4CN(C)C5)c3[nH]2)N1 [I-120]	7.00 to 11.00	7.00 to 11.00	10 to 30	10 to 30	0.1 to 10	1.05			5110	4820	0.07	0.014	0.201	
